One experiment deals with T1, SMARCA4 (Homo sapiens, UniProt P51532).
T1 construct: endogenous in cells
The experiment can be described thus: Cellular degradation assay, SMARCA4 (Table 1). Format: cell-based.

The target of a further experiment is T2, SMARCA2 (Homo sapiens, UniProt P51531).
T2 construct: endogenous in cells
As to the kind of experiment: SMARCA2 Cellular Degradation Assay (Western blot analysis on Jess platform). Format: cell-based. As to conditions: for DC50 / Dmax: cellular degradation; for Fold Selectivity SMARCA4/2: ratio DC50 SMARCA4 / DC50 SMARCA2. A digest of the protocol: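 Cells recovered from tumors are lysed, cleared at 20,817×g, and protein is quantified by BCA. Equal protein (5 μg) is then probed on Jess for SMARCA2 and actin, and normalized SMARCA2 signal is reported against vehicle.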
A general note: Immunoblotting shows a protein as a band on a membrane.

The structures appear in SMILES notation.

T1 sequence (P51532 whole entry, species assumed): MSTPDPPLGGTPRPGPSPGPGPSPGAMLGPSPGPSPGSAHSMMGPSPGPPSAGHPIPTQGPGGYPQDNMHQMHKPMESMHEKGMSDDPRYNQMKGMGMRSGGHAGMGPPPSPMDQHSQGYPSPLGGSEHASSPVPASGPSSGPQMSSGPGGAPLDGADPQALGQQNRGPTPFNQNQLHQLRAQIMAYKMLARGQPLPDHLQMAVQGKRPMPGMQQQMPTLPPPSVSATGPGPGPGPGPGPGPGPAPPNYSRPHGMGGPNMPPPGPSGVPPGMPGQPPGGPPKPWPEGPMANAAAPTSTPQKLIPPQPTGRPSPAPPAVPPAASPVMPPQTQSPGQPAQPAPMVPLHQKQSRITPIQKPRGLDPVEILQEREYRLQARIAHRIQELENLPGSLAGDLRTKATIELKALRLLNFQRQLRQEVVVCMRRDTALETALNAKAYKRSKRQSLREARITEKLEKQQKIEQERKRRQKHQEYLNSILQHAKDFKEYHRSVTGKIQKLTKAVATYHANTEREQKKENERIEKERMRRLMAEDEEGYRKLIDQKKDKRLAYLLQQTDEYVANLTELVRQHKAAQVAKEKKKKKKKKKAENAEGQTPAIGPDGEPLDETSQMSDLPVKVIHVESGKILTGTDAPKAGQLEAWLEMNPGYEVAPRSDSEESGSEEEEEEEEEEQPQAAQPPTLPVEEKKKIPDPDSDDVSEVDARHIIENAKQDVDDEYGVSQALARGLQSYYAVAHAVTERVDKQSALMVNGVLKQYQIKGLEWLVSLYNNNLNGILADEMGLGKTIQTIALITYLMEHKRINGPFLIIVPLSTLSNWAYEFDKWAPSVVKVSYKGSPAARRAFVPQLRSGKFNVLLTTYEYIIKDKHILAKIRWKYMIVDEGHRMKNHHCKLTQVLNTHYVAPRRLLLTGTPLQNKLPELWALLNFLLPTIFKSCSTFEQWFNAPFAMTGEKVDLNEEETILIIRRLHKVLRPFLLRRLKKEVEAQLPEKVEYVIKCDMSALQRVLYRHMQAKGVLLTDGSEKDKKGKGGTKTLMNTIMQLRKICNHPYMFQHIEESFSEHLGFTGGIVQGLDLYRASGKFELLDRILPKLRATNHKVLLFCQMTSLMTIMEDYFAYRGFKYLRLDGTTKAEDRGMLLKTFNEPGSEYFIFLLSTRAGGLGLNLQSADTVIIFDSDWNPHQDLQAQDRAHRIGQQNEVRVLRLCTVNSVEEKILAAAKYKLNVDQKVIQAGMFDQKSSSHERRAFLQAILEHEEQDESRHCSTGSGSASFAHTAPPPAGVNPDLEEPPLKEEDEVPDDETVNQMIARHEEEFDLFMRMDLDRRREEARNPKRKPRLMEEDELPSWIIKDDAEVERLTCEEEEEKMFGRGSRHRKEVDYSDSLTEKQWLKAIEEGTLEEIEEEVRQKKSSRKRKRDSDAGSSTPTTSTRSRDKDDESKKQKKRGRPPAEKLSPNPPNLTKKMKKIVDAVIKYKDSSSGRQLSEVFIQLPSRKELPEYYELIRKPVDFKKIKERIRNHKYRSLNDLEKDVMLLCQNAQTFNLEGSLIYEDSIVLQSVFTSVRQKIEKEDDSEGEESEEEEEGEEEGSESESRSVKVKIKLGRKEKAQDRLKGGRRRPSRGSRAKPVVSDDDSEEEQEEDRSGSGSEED
T2 sequence (P51531 whole entry, species assumed): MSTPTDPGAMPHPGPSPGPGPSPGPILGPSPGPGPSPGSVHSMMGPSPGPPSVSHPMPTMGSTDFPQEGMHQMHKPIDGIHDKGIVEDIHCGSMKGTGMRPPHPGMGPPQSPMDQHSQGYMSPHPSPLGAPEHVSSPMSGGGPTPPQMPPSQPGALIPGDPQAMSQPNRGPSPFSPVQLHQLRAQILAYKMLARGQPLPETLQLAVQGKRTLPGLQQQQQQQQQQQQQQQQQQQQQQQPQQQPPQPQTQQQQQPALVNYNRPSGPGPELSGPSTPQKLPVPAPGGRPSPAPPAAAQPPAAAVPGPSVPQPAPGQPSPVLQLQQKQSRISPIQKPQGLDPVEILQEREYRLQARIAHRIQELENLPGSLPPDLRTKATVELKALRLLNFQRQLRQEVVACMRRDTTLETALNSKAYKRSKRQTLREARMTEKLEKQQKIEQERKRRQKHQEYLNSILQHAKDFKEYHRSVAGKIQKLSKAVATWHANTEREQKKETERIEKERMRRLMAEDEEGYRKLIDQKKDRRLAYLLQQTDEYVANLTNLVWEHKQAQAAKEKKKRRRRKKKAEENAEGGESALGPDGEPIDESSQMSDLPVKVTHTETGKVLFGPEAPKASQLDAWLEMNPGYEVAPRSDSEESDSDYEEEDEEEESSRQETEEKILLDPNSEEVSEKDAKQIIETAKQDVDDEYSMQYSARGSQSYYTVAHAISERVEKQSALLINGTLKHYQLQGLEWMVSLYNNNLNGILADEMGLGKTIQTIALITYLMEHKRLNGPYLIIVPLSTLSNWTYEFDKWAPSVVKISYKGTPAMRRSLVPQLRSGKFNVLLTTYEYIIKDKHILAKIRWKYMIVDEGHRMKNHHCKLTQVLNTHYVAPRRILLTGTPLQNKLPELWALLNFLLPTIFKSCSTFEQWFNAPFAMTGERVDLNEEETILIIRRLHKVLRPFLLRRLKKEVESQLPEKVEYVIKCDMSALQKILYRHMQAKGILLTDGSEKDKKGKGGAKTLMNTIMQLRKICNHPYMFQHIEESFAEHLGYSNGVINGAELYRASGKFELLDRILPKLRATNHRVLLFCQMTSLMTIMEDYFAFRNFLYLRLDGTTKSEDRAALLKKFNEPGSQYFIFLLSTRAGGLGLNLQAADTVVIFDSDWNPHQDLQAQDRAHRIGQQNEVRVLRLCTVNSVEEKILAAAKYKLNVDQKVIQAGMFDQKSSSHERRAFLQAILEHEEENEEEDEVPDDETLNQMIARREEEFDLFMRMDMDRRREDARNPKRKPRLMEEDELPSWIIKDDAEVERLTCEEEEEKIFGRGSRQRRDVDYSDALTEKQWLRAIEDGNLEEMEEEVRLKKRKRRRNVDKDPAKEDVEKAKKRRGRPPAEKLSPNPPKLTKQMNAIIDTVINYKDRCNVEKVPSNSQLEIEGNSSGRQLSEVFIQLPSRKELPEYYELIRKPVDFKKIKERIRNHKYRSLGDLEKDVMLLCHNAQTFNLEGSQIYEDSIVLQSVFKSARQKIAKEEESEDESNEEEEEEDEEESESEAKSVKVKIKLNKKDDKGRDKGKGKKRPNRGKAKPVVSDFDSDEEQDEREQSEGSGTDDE

As for `CN(CC1(c2ccccc2)CCN(c2cnnc(-c3ccccc3O)c2)CC1)C(=O)C1CCN(CCC2CCN(c3ccc([C@H]4CCC(=O)NC4=O)cc3)CC2)C2(CCC2)C1` (mixture of isomers) [Example 146, rac-5-(2-(1-(4-((r)-2,6-dioxopiperidin-3-yl)phenyl)piperidin-4-yl)ethyl)-n-((1-(6-(2-hydroxyphenyl)pyridazin-4-yl)-4-phenylpiperidin-4-yl)methyl)-n-methyl-5-azaspiro[3.5]nonane-8-carboxamide], on SMARCA4, the DC50 – broadly, the concentration giving 50% degradation – was 21.9 nM and the Dmax (in general, the largest share of the target that was removed) is 72.8%. At SMARCA2, it took 5.57 nM to reach half-maximal degradation (DC50), the Dmax was determined as 83% and the “Fold Selectivity SMARCA4/2” value stood at 4.

As to `O=C1CC[C@H](c2ccc(N3CCC(CN4CC5CCN(C(=O)C6(c7ccccc7)CCN(c7cnnc(-c8ccccc8O)c7)CC6)CC54)CC3)cc2)C(=O)N1` (stereo partly drawn) [Example 38, (3R)-3-(4-{4-[(3-{1-[6-(2-hydroxyphenyl)pyridazin-4-yl]-4-phenylpiperidine-4-carbonyl}-3,8-diazabicyclo[4.2.0]octan-8-yl)methyl]piperidin-1-yl}phenyl)piperidine-2,6-dione], the maximal degradation (Dmax) at SMARCA4 is 3.22%. At SMARCA2, the Dmax was found to be 44.8% and the “Fold Selectivity SMARCA4/2” value came out at 1.

As to `Cn1nccc1C1(C(=O)N2CC3(CN(CC4CCN(c5ccc(C6CCC(=O)NC6=O)cc5)CC4)C3)C2)CCN(c2cnnc(-c3ccccc3O)c2)CC1` (racemic) [Example 93, rac-(3R)-3-(4-{4-[(6-{1-[6-(2-hydroxyphenyl)pyridazin-4-yl]-4-(1-methyl-1H-pyrazol-5-yl)piperidine-4-carbonyl}-2,6-diazaspiro[3.3]heptan-2-yl)methyl]piperidin-1-yl}phenyl)piperidine-2,6-dione], the greatest degradation seen (Dmax) on SMARCA4 was found to be 33.8%. Besides, on SMARCA2, the DC50 amounted to 21.1 nM, the Dmax amounted to 69.8% and the “Fold Selectivity SMARCA4/2” value is given as 474.

For the compound `O=C1CC[C@H](c2ccc(N3CCC(CN4CC5CC(NC(=O)C6(c7ccccc7)CCN(c7cnnc(-c8ccccc8O)c7)CC6)C4C5)CC3)cc2)C(=O)N1` (stereo partly drawn) [Example 47, N-{2-[(1-{4-[(3R)-2,6-dioxopiperidin-3-yl]phenyl}piperidin-4-yl)methyl]-2-azabicyclo[2.2.1]heptan-6-yl}-1-[6-(2-hydroxyphenyl)pyridazin-4-yl]-4-phenylpiperidine-4-carboxamide], the Dmax on SMARCA4 was 2.09%; on SMARCA2, 7.19%. Also, the “Fold Selectivity SMARCA4/2” value on SMARCA2 was found to be 1.

On SMARCA4, `COC1(C(=O)N(C)C2CCN(C(=O)CN3CCC(c4ccc([C@@H]5CCC(=O)NC5=O)cc4)CC3)CC2)CCN(c2cnnc(-c3ccccc3O)c2)CC1` (racemic) [Example 111, rac-n-(1-(2-(4-(4-(2,6-dioxopiperidin-3-yl)phenyl)piperidin-1-yl)acetyl)piperidin-4-yl)-1-(6-(2-hydroxyphenyl)pyridazin-4-yl)-4-methoxy-n-methylpiperidine-4-carboxamide] had a DC50 of 210 nM and a Dmax of 57.5%. In addition, on SMARCA2, the DC50 was 11.1 nM, the Dmax was 81.4% and the “Fold Selectivity SMARCA4/2” value was 19.

At SMARCA4, `CN(C(=O)C1(Oc2ccn(C)n2)CCN(c2cnnc(-c3ccccc3O)c2)CC1)C1CCN(C(=O)CN2CCC(c3ccc([C@@H]4CCC(=O)NC4=O)cc3)CC2)CC1` (racemic) [Example 110, rac-n-(1-(2-(4-(4-(2,6-dioxopiperidin-3-yl)phenyl)piperidin-1-yl)acetyl)piperidin-4-yl)-1-(6-(2-hydroxyphenyl)pyridazin-4-yl)-n-methyl-4-((1-methyl-1h-pyrazol-3-yl)oxy)piperidine-4-carboxamide] showed a DC50 of 273 nM and a Dmax of 56.9%. Further, on SMARCA2, the DC50 was found to be 16.7 nM, the Dmax stood at 80.8% and the “Fold Selectivity SMARCA4/2” value worked out at 16.

In turn, `Cn1c(=O)n(C2CCC(=O)NC2=O)c2cccc(N3CCN(CC(=O)N4CC5(C4)CN(C(=O)C4(c6ccccc6)CCN(c6cnnc(-c7ccccc7O)c6)CC4)C5)CC3)c21` (racemic) [Example 126, rac-(3R)-3-(4-{4-[2-(6-{1-[6-(2-hydroxyphenyl)pyridazin-4-yl]-4-phenylpiperidine-4-carbonyl}-2,6-diazaspiro[3.3]heptan-2-yl)-2-oxoethyl]piperazin-1-yl}-3-methyl-2-oxo-2,3-dihydro-1H-1,3-benzodiazol-1-yl)piperidine-2,6-dione] registered a Dmax on SMARCA4 of 32.2%. For the same compound, on SMARCA2, half-maximal degradation (DC50) was put at 32.8 nM, the Dmax is 80.9% and the “Fold Selectivity SMARCA4/2” value was determined as 304.

At SMARCA4, `O=C1CC[C@H](c2ccc(N3CCC(CN4CCC(NC(=O)C5(C6CCOCC6)CCN(c6cnnc(-c7ccccc7O)c6)CC5)CC45CCC5)CC3)cc2)C(=O)N1` (stereo partly drawn) [Example 161, N-{5-[(1-{4-[(3R)-2,6-dioxopiperidin-3-yl]phenyl}piperidin-4-yl)methyl]-5-azaspiro[3.5]nonan-8-yl}-1-[6-(2-hydroxyphenyl)pyridazin-4-yl]-4-(oxan-4-yl)piperidine-4-carboxamide] yielded a Dmax of 32.4%. In addition, at SMARCA2, half-maximal degradation (DC50) was put at 31.9 nM, the Dmax turned out to be 70.8% and the “Fold Selectivity SMARCA4/2” value was 313.

Consider `O=C1CCC(c2ccc(N3CCC4(CC3)COC(CN3CC5(CCN(C(=O)C6(c7ccccc7)CCN(c7cnnc(-c8ccccc8O)c7)CC6)CC5)C3)C4)cc2)C(=O)N1` (racemic) [Example 127, rac-(3R)-3-(4-{3-[(7-{1-[6-(2-hydroxyphenyl)pyridazin-4-yl]-4-phenylpiperidine-4-carbonyl}-2,7-diazaspiro[3.5]nonan-2-yl)methyl]-2-oxa-8-azaspiro[4.5]decan-8-yl}phenyl)piperidine-2,6-dione], for which, on SMARCA4, the Dmax turned out to be 56.1%. Further, at SMARCA2, half-maximal degradation (DC50) was put at 32 nM, the Dmax was 64.2% and the “Fold Selectivity SMARCA4/2” value worked out at 312.

At SMARCA4, `CN(C(=O)C1(c2ccccc2)CCN(c2cnnc(-c3ccccc3O)c2)CC1)C1CCN(CC2CCN(c3ccc([C@H]4CCC(=O)NC4=O)cc3)CC2)C2(CCCCC2)C1` (mixture of isomers) [Example 153, N-[(4RS)-1-[(1-{4-[(3R)-2,6-dioxopiperidin-3-yl]phenyl}piperidin-4-yl)methyl]-1-azaspiro[5.5]undecan-4-yl]-1-[6-(2-hydroxyphenyl)pyridazin-4-yl]-N-methyl-4-phenylpiperidine-4-carboxamide] showed a DC50 of 47.5 nM and a Dmax of 86.2%. For the same compound, at SMARCA2, half-maximal degradation (DC50) was put at 10.3 nM, the maximal degradation (Dmax) came to 92.2% and the “Fold Selectivity SMARCA4/2” value amounted to 5.

Take `O=C1CC[C@H](c2ccc(N3CCC(CN4CCCC4C4CCCN(C(=O)C5(c6ccccc6)CCN(c6cnnc(-c7ccccc7O)c6)CC5)C4)CC3)cc2)C(=O)N1` (stereo partly drawn) [Example 37, (3R)-3-[4-(4-{[2-(1-{1-[6-(2-hydroxyphenyl)pyridazin-4-yl]-4-phenylpiperidine-4-carbonyl}piperidin-3-yl)pyrrolidin-1-yl]methyl}piperidin-1-yl)phenyl]piperidine-2,6-dione]: at SMARCA4, the Dmax turned out to be 33.1%. Also, at SMARCA2, the Dmax came to 47.5% and the “Fold Selectivity SMARCA4/2” value is reported as 1.

In the case of `O=C1CC[C@H](c2ccc(N3CCC(CN4CC[C@H]5[C@H](CCN5C(=O)C5(c6ccccc6)CCN(c6cnnc(-c7ccccc7O)c6)CC5)C4)CC3)cc2)C(=O)N1` (mixture of isomers) [Example 155, (3R)-3-[4-(4-{[(3aRS,7aSR)-1-{1-[6-(2-hydroxyphenyl)pyridazin-4-yl]-4-phenylpiperidine-4-carbonyl}-octahydro-1H-pyrrolo[3,2-c]pyridin-5-yl]methyl}piperidin-1-yl)phenyl]piperidine-2,6-dione], the Dmax at SMARCA4 was 51.5%. On SMARCA2, the DC50 came out at 13.7 nM, the Dmax was determined as 75% and the “Fold Selectivity SMARCA4/2” value is 730.

At SMARCA4, `O=C1CC[C@H](c2ccc(N3CCC(CN4CCC5(CC4)CN(C(=O)C4(c6ccccc6)CCN(c6cnnc(-c7ccccc7O)c6)CC4)C5)CC3)nc2)C(=O)N1` [Example 189, (3R)-3-(6-{4-[(2-{1-[6-(2-hydroxyphenyl)pyridazin-4-yl]-4-phenylpiperidine-4-carbonyl}-2,7-diazaspiro[3.5]nonan-7-yl)methyl]piperidin-1-yl}pyridin-3-yl)piperidine-2,6-dione] came in with a DC50 of 15.6 nM and a Dmax of 81.8%. Moreover, on SMARCA2, half-maximal degradation (DC50) was put at 1.7 nM, the Dmax was 93% and the “Fold Selectivity SMARCA4/2” value worked out at 9.

With `CN(C(=O)C1(c2ccccc2)CCN(c2cnnc(-c3ccccc3O)c2)CC1)C1CCN([C@@H]2COC3(CCN(c4ccc([C@H]5CCC(=O)NC5=O)cc4)CC3)C2)CC1` (single isomer, unassigned) [Example 148], the Dmax on SMARCA4 stood at 41.4%. Further, at SMARCA2, the DC50 came to 6.84 nM, the Dmax is 83% and the “Fold Selectivity SMARCA4/2” value is 1462.

`CC1(NC(=O)C2(c3ccccc3)CCN(c3cnnc(-c4ccccc4O)c3)CC2)CCN(CC2CCN(c3ccc(N[C@@H]4CCC(=O)NC4=O)cn3)CC2)CC1` (racemic) [Example 99, rac-(r)-n-(1-((1-(5-((2,6-dioxopiperidin-3-yl)amino)pyridin-2-yl)piperidin-4-yl)methyl)-4-methylpiperidin-4-yl)-1-(6-(2-hydroxyphenyl)pyridazin-4-yl)-4-phenylpiperidine-4-carboxamide] returned a maximal degradation (Dmax) at SMARCA4 of 46.9%. In addition, on SMARCA2, half-maximal degradation (DC50) was put at 48.1 nM, the Dmax came to 57.3% and the “Fold Selectivity SMARCA4/2” value is 208.

As to `Cc1ccccc1C1(C(=O)N2CC3(CN(CC4CCN(c5ccc(C6CCC(=O)NC6=O)cc5)CC4)C3)C2)CCN(c2cnnc(-c3ccccc3O)c2)CC1` (racemic) [Example 33, rac-(3R)-3-(4-{4-[(6-{1-[6-(2-hydroxyphenyl)pyridazin-4-yl]-4-(2-methylphenyl)piperidine-4-carbonyl}-2,6-diazaspiro[3.3]heptan-2-yl)methyl]piperidin-1-yl}phenyl)piperidine-2,6-dione], on SMARCA4, the half-maximal degradation concentration (DC50) turned out to be 71.9 nM and the Dmax was determined as 56%. At SMARCA2, half-maximal degradation (DC50) was put at 11.7 nM, the maximal degradation (Dmax) was 78.9% and the “Fold Selectivity SMARCA4/2” value was determined as 6.16.

The values above are taken from patent US20250051344A1, “BIFUNCTIONAL SELECTIVE DEGRADERS OF SMARCA2 AND THERAPEUTIC USES THEREOF” (Nurix Therapeutics, Inc., priority 2023, published 2025).
